Test results from ChEMBL document CHEMBL5360667, “Carboxylic Acid-Containing Indanyl Compounds as S1P5 Modulators for Treating Neurodegenerative Diseases” (ACS Med Chem Lett, 2023).

biological target: Sphingosine 1-phosphate receptor 5 (Homo sapiens) (UniProt Q9H228); experiment: Agonist activity at recombinant S1P5 (unknown origin) expressed in CHO cell membranes assessed as increase in [35S]GTPgammaS binding preincubated for 30 mins followed by [35S]GTPgammaS addition and measured after 40 mins by microbeta scintillation counter analysis; format: functional; conditions: Membrane, filed as agonist, time 70.0 min
Sequence (Q9H228 whole entry): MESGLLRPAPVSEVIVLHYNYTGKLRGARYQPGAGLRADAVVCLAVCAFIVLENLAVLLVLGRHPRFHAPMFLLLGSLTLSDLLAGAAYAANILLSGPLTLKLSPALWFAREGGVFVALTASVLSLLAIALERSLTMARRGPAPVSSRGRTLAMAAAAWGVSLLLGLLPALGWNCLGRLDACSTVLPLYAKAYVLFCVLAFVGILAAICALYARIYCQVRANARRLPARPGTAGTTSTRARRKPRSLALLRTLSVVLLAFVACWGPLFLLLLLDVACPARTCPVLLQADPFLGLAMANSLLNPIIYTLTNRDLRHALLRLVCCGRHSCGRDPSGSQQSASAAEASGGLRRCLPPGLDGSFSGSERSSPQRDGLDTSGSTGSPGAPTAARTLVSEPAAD

Row | EC [nM] | SMILES
1 | 1 | CC(C)Oc1ccc(COc2ccc3c(c2)CCC3N2CC(C(=O)O)C2)cc1C(F)(F)F (stereo unspecified)
2 | < 1 | Cc1c(OCc2c(Cl)cccc2Cl)ccc2c1CCC2N1CCC(C(=O)O)CC1 (stereo unspecified)
3 | < 1 | Cc1cc(OCc2c(Cl)cccc2Cl)cc2c1C(N1CCC(C(=O)O)CC1)CC2 (stereo unspecified)
4 | < 1 | O=C(O)C1CCN(C2CCc3c2ccc(OCc2c(Cl)cccc2Cl)c3F)CC1 (stereo unspecified)
5 | 1 | O=C(O)C1CN(C2CCc3cc(OCc4ccc(C5CC5)c(C(F)(F)F)c4)ccc32)C1 (stereo unspecified)
6 | 1 | O=C(O)C1CN(C2CCc3cc(OCc4cc(F)c(F)cc4F)ccc32)C1 (stereo unspecified)
